Assay results: US20200276181A1, “THIENOISOQUINOLINES AND THEIR DERIVATIVES FOR TARGETING TUBULIN, CH-TOG, AURORA A KINASE, TPX2, CDK5RAP2 AND/OR ASPM” (VALORBEC, SEC, priority 2017, published 2020)

Legend:
A549 cells [1] = assay: IC50 of derivatives (Table 5); format: cell-based, human; details: for IC50: Table 5, cell line only named in b213 (A549)
[2] = system: HeLa (cervical adenocarcinoma) cells; assay: Cell viability IC50 (Table 3); format: cell-based, human
Protocol: (§1) To date, 30 variants with different structural modifications have been made. […] In particular, it is shown that C75 causes death in multiple cancer cells with IC50 values in the 100-400 nM range, including breast cancers (MCF7, BT549), lung cancer (A549), colorectal cancer (HCT116) in addition to HeLa cells (cervical cancer).

A549 cells [3] = assay: Spindle morphology, DAPI and tubulin staining; format: cell-based, human; details: 300 nM, 4 hours
Protocol: FIG. 1A) is a line graph showing changes in the percentage of viable HFF-1, HeLa, A549 and HCT 116 cells after treatment with a range of C75 concentrations for 3 population doubling times (N=3). […] FIG. 1C) is a line graph showing the percentage of HeLa and HFF1 cells in mitosis after treatment with various concentrations of C75 for 8 hours. The bars indicate standard deviation. FIG. 1D) is a series of images showing cells that were fixed and co-stained for tubulin (microtubules) and DAPI (DNA). […] The scale bar for the cells is 10 μm. […] FIG. 1F) is a cartoon schematic showing the key features of a metaphase cell.

[4] = system: MCF7, BT549, A549, HCT116, HeLa cells; assay: Viability in cancer vs non-cancer cell lines, summary of Table 3; format: cell-based, human
Protocol: as §1

HCT116 spheroids = assay: Multicellular tumour spheroids; format: cell-based; details: 10 nM paclitaxel or 250 nM C75 alone, 6 days
Protocol: FIGS. 5A, 5B, 5C, 5D, 5E, 5F, 5G, 5H, 5I, 5J, 5K, 5L and 5M show how C75 disrupts or reduces the growth of HeLa, HCT116 and A549 spheroids. FIG. 5A) images show HeLa spheroids over time (3 days) before and after treatment with control (1 μM C87; n=10), 250 nM (n=6) or 500 nM (n=10) of C75. The scale bar is 100 μm. FIG. 5B) is a series images of HeLa spheroids after three days of treatment with control (500 nM C87) or 500 nM C75. The spheroids were stained for fluorescein diacetate (to detect live cells) and propidium iodide (to detect dead cells). […] The scale bar is 100 μm. FIG. 5C) is a line graph showing the change in spheroid area (μm^2) for each day and treatment as indicated. Bars show standard deviation and the asterisks are p<0.05 as determined by the student's t test. FIG. 5D) images show HeLa spheroids over 3 days before and after treatment with empty nanoparticles (control; n=3) or 250 nM of nanoparticle-encapsulated C75 (n=3). The scale bar is 100 μm. […] Bars show standard deviation and the asterisks are p<0.05 as determined by the student's t test. FIG. 5F) is a series of images of HCT116 spheroids treated with control (1 μM C87; n=10), 500 nM C75 (n=10) and 1 μM C75 (n=10). FIG. 5G) is a series images of HCT116 spheroids after six days of treatment with control (1 μM C87) or 1 μM C75. The spheroids were stained for fluorescein diacetate (live cells) and propidium iodide (dead cells). […] FIG. 5H) is a line graph showing the growth in surface area (%) of HCT116 spheroids treated with control (1 μM C87), 500 nM C75 and 1 μM C75 after six days. FIG. 5I) is a series of images of A549 spheroids treated with control (1 μM C87, n=6), 500 nM C75 (n=6), and 1 μM C75 (n=6) over 5 days. The scale bar is 100 μm. FIG. 5J) is a series of images of A549 spheroids after six days of treatment with control (750 nM C87) or 1 μM C75. The spheroids were stained for fluorescein diacetate (live cells) and propidium iodide (dead cells). […] Bars show standard deviation and the asterisks are p<0.05 as determined by the student's t test. FIG. 5L) images show A549 spheroids over 6 days before and after treatment with empty nanoparticles (control; n=3) or 500 nM of nanoparticle-encapsulated C75 (n=3). The scale bar is 100 μm. […] Bars show standard deviation and the asterisks are p<0.05 as determined by the student's t test.
FIG. 11A) is a series of images of HCT116 spheroids treated with control (DMSO), 10 nM paclitaxel, 250 nM C75 or both for 6 days. […] The scale bar for the images is 100 μm. […] As shown in the images, adding paclitaxel and C75 in combination led to regression in spheroid size compared to each treatment on its own.
The thienoisoquinoline compounds may also have potential for use in combinatorial therapies. […]

| SMILES | IC50 (A549 cells [1]) [nM] | IC50 [2] [nM] | further results |
| --- | --- | --- | --- |
| COc1ccc(S(=O)(=O)N2Cc3cccc([N+](=O)[O-])c3-c3sccc32)cc1 [Compound C130] | 439 | – | – |
| O=S(=O)(c1ccc(C(F)(F)F)cc1)N1Cc2ccccc2-c2sc(Br)cc21 [Compound C200] | > 1000 | > 1000 | – |
| COc1ccc(S(=O)(=O)N2Cc3cccc(N)c3-c3sccc32)cc1 [Compound C132] | > 1000 | – | – |
| Cc1cccc(S(=O)(=O)N2Cc3ccccc3-c3sc(Br)cc32)c1 [Compound C93] | – | > 1000 | – |
| Cc1ccc(S(=O)(=O)N2Cc3ccccc3-c3sc(C=O)cc32)cc1 [Compound C142] | 456 | – | – |
| COc1ccc(S(=O)(=O)N2Cc3c(Br)ccc(N)c3-c3sc(Br)cc32)cc1 [Compound C133] | > 1000 | – | – |
| Cc1ccc(S(=O)(=O)N2Cc3ccccc3-c3sc(C(=O)O)cc32)cc1 [Compound C143] | > 1000 | – | – |
| CC(C)(C)c1ccc(S(=O)(=O)N2Cc3ccccc3-c3sccc32)cc1 [Compound C109] | > 1000 | – | – |
| Cc1ccc(S(=O)(=O)N2Cc3ccccc3-c3sc(-c4ccccc4)cc32)cc1 [Compound C71] | > 1000 | > 1000 | – |
| Cc1ccc(S(=O)(=O)N2Cc3ccccc3-c3sccc32)cc1 [Compound C91] | – | – | IC50 (A549 cells [1]; Homo sapiens): > 1000 nM; efficacy (effect on viability) in cancer cells vs. non-cancer cells [4]: higher efficacy |
| Cc1cccc(S(=O)(=O)N2Cc3ccccc3-c3sccc32)c1 [Compound C39] | > 1000 | > 1000 | – |
| COc1ccc(S(=O)(=O)N2Cc3cc4c(cc3-c3sccc32)OCO4)cc1 [Compound C300] | > 1000 | – | – |
| COc1ccc(S(=O)(=O)N2Cc3cc4c(cc3-c3sc(Br)cc32)OCO4)cc1 [Compound C301] | > 1000 | – | – |
| O=S(=O)(c1ccc(C(F)(F)F)cc1)N1Cc2ccccc2-c2sccc21 [Compound C108] | > 1000 | > 1000 | – |
| COc1ccc(S(=O)(=O)N2Cc3cccc([N+](=O)[O-])c3-c3sc(Br)cc32)cc1 [Compound C131] | 801 | – | – |
| CC(C)(C)c1ccc(S(=O)(=O)N2Cc3ccccc3-c3sc(Br)cc32)cc1 [Compound C201] | > 1000 | > 1000 | – |
| CC(=O)O[C@H]1C(=O)[C@@]2(C)[C@H]([C@H](OC(=O)c3ccccc3)[C@]3(O)C[C@H](OC(=O)[C@H](O)[C@@H](NC(=O)c4ccccc4)c4ccccc4)C(C)=C1C3(C)C)[C@]1(OC(C)=O)CO[C@@H]1C[C@@H]2O [paclitaxel, reference compound] | – | – | spheroid growth, single drug (HCT116 spheroids): failed to grow |

Continued, in another order:

| IC50 (A549 cells [1]) [nM] | IC50 [2] [nM] | SMILES | further results |
| --- | --- | --- | --- |
| 260 | – | COc1ccc(S(=O)(=O)N2Cc3ccccc3-c3sc(C=O)cc32)cc1 [Compound C140] | efficacy relative to C75 (A549 cells [1]; A549 cells): higher efficacy; spindle phenotype (A549 cells [3]): causes spindle phenotypes similar to C75 |
| > 1000 | – | COc1ccc(S(=O)(=O)N2Cc3ccccc3-c3sc(C(=O)O)cc32)cc1 [Compound C141] | – |
| 549 | – | COc1ccc(S(=O)(=O)N2Cc3ccccc3-c3sc(Cl)c(C)c32)cc1 [Compound C128] | – |
| 635 | – | COc1ccc(S(=O)(=O)N2Cc3ccccc3-c3scc(C)c32)cc1 [Compound C127] | – |
| 416 | – | COc1ccc(S(=O)(=O)N2Cc3ccccc3-c3sc(C=O)c(C)c32)cc1 [Compound C138] | – |
| > 1000 | – | COc1ccc(S(=O)(=O)N2Cc3ccccc3-c3sc(Br)c(C)c32)cc1 [Compound C139] | – |
| 434 | 204 | COc1ccc(S(=O)(=O)N2Cc3ccccc3-c3sc(Cl)cc32)cc1 [Compound C208] | – |
| > 1000 | > 1000 | Cc1ccc(S(=O)(=O)N2Cc3ccccc3-c3sc(Br)cc32)cc1 [Compound C74] | – |
